How the values were obtained:
PDE4B2 [1] = molecular target: T1, PDE4B2 (Homo sapiens, UniProt Q07343); assay: PDE4B2 cell experiment (cAMP, Eu-cAMP tracer / Ulight-anti-cAMP); format: cell-based; conditions: Flpin-293-PDE4B2 cells; for IC50: Foskolin
T1 construct: expressed in transfected cells; host or cells: Flp-In-293 (Flpin-293-PDE4B2 [sic])

PDE4B2 [2] = molecular target: T1, PDE4B2; assay: PDE4B2 enzyme experiment (AMP-glo, cAMP substrate); format: biochemical
PDE4D2 = PDE4D2 (Homo sapiens, UniProt Q08499); assay: PDE4D2 enzyme experiment (AMP-glo, cAMP substrate); format: biochemical; conditions: read-out: PDE4D2 IC50 Binding
Text: Inhibition rate % ^= (1 - (RLUpositive control - RLUcompound)/(RLUpositive control - RLUnegative control)) * 100.

Chain of PDE4D2 (Q08499 303-809 limits assumed): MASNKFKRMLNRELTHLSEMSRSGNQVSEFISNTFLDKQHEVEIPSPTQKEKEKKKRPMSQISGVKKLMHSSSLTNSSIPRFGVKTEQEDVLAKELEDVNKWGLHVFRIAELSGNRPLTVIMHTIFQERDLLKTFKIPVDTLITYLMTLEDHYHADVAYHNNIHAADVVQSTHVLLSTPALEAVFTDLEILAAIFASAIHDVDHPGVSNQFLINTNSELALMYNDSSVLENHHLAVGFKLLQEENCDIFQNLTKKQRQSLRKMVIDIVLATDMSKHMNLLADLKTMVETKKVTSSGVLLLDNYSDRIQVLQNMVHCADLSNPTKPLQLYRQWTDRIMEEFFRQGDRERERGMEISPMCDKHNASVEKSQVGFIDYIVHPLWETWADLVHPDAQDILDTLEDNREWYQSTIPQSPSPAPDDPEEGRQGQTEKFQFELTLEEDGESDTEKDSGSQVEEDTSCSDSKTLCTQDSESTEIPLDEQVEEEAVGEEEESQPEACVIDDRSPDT
T1 sequence (Q07343 1-564 isoform Q07343-2): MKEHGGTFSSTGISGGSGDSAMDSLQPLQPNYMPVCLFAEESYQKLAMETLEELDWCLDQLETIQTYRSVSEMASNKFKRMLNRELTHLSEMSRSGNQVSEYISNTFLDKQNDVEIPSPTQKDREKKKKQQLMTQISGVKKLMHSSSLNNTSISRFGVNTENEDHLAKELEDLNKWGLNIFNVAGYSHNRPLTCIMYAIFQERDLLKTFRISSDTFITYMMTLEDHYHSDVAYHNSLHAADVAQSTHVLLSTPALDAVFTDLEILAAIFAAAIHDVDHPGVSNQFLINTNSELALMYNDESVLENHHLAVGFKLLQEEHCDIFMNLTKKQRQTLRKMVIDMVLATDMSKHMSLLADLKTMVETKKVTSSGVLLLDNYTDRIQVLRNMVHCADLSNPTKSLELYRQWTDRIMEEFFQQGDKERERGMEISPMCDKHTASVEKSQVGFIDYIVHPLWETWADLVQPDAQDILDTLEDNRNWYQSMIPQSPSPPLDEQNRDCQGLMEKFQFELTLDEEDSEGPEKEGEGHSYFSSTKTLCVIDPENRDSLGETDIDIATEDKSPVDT

IC50 (PDE4B2 [1]) | IC50 (PDE4B2 [2]) | IC50 (PDE4D2) | Cell Inhibition% @1 nM (PDE4B2 [1]; 1 nM) | Cell Inhibition% @10 nM (PDE4B2 [1]; 10 nM) | Cell Inhibition% @100 nM (PDE4B2 [1]; 100 nM) | Compound | further results
– | 0.705 nM | 1.63 nM | 3.47% | 37.42% | 95.32% | [O-][S+]1CCc2nc(N3CCc4cc(N5CC(F)C5)ccc4C3)nc(NC3(CO)CCC3)c21 (stereo not drawn) [Compound 89] | –
19.7 nM | 0.77 nM | 2.51 nM | – | – | – | [O-][S+]1CCc2nc(N3CCc4cc(Cl)c(Cl)cc4C3)nc(NC3(CO)CCC3)c21 (stereo not drawn) [Compound 26] | –
– | 0.19 nM | 0.385 nM | 14.99% | 65.79% | 97.23% | [O-][S+]1CCc2nc(N3CCc4cc(-n5ccnc5)ccc4C3)nc(NC3(CO)CCC3)c21 (stereo not drawn) [Compound 90] | –
– | 0.24 nM | 0.481 nM | 8.69% | 63.13% | 97.77% | CN1CCN(c2ccc3c(c2)CCN(c2nc4c(c(NC5(CO)CCC5)n2)[S+]([O-])CC4)C3)C1=O (stereo not drawn) [Compound 86] | –
10.4 nM | 0.38 nM | 0.92 nM | – | – | – | [O-][S+]1CCc2nc(N3CCc4cc(Br)ccc4C3)nc(NC3(CO)CCC3)c21 (stereo not drawn) [Compound 24] | –
– | 0.05 nM | 0.049 nM | 61.02% | 99.37% | 100.73% | Cn1ccc(-c2ccc3c(c2)CCN(c2nc4c(c(NC5(CO)CCC5)n2)[S+]([O-])CC4)C3)n1 (stereo not drawn) [Compound 77] | –
– | 0.476 nM | 0.77 nM | – | – | – | Cn1c(=O)oc2cc3c(cc21)CCN(c1nc2c(c(NC4(CO)CCC4)n1)[S@+]([O-])CC2)C3 [Compound 68, (R)-6-(4-((1-(hydroxymethyl)cyclobutyl)amino)-5-oxido-6,7-dihydrothieno[3,2-d]pyrimidin-2-yl)-1-methyl-5,6,7,8-tetrahydrooxazolo[4,5-g]isoquinolin-2(1H)-one] | inhibition at 0.001 µM (PDE4B2 [1]; 1 nM): 8.99%; inhibition at 0.01 µM (PDE4B2 [1]; 10 nM): 56.3%; inhibition at 0.1 µM (PDE4B2 [1]; 100 nM): 96.1%
– | – | 4.81 nM | – | – | – | [O-][S@+]1CCc2nc(N3CCc4cc5ncoc5cc4C3)nc(NC3(CO)CCC3)c21 [Compound 49, (R)-2-(7,8-dihydrooxazolo[4,5-g]isoquinolin-6(5H)-yl)-4-((1-(hydroxymethyl)cyclobutyl)amino)-6,7-dihydrothieno[3,2-d]pyrimidine 5-oxide] | –
– | – | 0.876 nM | – | – | – | [O-][S@+]1CCc2nc(N3CCc4cc(N5CCCC5)c(F)cc4C3)nc(NC3(CO)CCC3)c21 [Compound 181, (R)-2-(7-fluoro-6-(pyrrolidin-1-yl)-3,4-dihydroisoquinolin-2(1H)-yl)-4-((1-(hydroxymethyl)cyclobutyl)amino)-6,7-dihydrothieno[3,2-d]pyrimidine 5-oxide] | –
– | – | 0.0931 nM | – | – | – | [O-][S@+]1CCc2nc(N3CCc4cc(-c5nccs5)ccc4C3)nc(NC3(CO)CCC3)c21 [Compound 65, (R)-4-((1-(hydroxymethyl)cyclobutyl)amino)-2-(6-(thiazol-2-yl)-3,4-dihydroisoquinolin-2(1H)-yl)-6,7-dihydrothieno[3,2-d]pyrimidine 5-oxide] | –

The remaining lines, values behind:

Compound | IC50 (PDE4B2 [1]) | IC50 (PDE4B2 [2]) | IC50 (PDE4D2) | Cell Inhibition% @1 nM (PDE4B2 [1]; 1 nM) | Cell Inhibition% @10 nM (PDE4B2 [1]; 10 nM) | Cell Inhibition% @100 nM (PDE4B2 [1]; 100 nM) | further results
[O-][S@+]1CCc2nc(N3CCn4c(nc5ccc(Cl)cc54)C3)nc(NC3(CO)CCC3)c21 [Compound 6, (R)-2-(7-chloro-3,4-dihydrobenzo[4,5]imidazo[1,2-a]pyrazin-2(1H)-yl)-4-((1-(hydroxymethyl)cyclobutyl)amino)-6,7-dihydrothieno[3,2-d]pyrimidine 5-oxide] | 8.2 nM | 0.41 nM | 0.473 nM | – | – | – | –
O=C(O)Cc1ccc(Nc2nc(N3CCc4cc(Cl)ccc4C3)nc3c2[S@@+]([O-])CC3)cc1 [Compound 128] | – | 5.43 nM | 18.1 nM | -0.97% | 6.68% | 25.39% | –
[O-][S+]1CCc2nc(N3CCc4c(c(NCCO)nc5cc(Cl)ccc45)C3)nc(NC3(CO)CCC3)c21 (stereo not drawn) [Compound 103] | – | 0.338 nM | 0.873 nM | 2.83% | 38.89% | 95.41% | –
[O-][S+]1CCc2nc(N3CC[C@@H]4c5cc(Cl)ccc5OC[C@H]4C3)nc(NC3(CO)CCC3)c21 (stereo partly drawn) [Compound 108] | – | 1.41 nM | 4.17 nM | -0.82% | 37.35% | 95.13% | –
[O-][S+]1CCc2nc(N3Cc4nn5cc(Cl)cnc5c4C3)nc(NC3(CO)CCC3)c21 (stereo not drawn) [Compound 2] | 418 nM | 19.3 nM | 60.1 nM | – | – | – | –
COc1nc2cc(Cl)ccc2c2c1CN(c1nc3c(c(NC4(CO)CCC4)n1)[S+]([O-])CC3)CC2 (stereo not drawn) [Compound 101] | 13.2 nM | 0.655 nM | 1.96 nM | – | – | – | –
[O-][S@+]1CCc2nc(N3CC[C@@H]4c5ccc(Cl)cc5OC[C@H]4C3)nc(NC3(CO)CCC3)c21 [Compound 14, (R)-2-((4aR,10bS)-8-chloro-1,4a,5,10b-tetrahydro-2H-chromeno[3,4-c]pyridin-3(4H)-yl)-4-((1-(hydroxymethyl)cyclobutyl)amino)-6,7-dihydrothieno[3,2-d]pyrimidine 5-oxide] | 16.5 nM | 0.21 nM | 1.08 nM | – | – | – | –
COc1ccc2sc3c(c2c1)CCN(c1nc2c(c(NC4(CO)CCC4)n1)[S+]([O-])CC2)C3 (stereo not drawn) [Compound 82] | – | 0.366 nM | 0.764 nM | 19.08% | 77.47% | 99.87% | –
[O-][S+]1CCc2nc(N3CCc4ncsc4C3)nc(NC3(CO)CCC3)c21 (stereo not drawn) [Compound 15] | 150 nM | 20.4 nM | 28.6 nM | – | – | – | –
Cc1nc2c(s1)CN(c1nc3c(c(NC4(CO)CCC4)n1)[S+]([O-])CC3)CC2 (stereo not drawn) [Compound 16] | 78 nM | 10.7 nM | 17.3 nM | – | – | – | –
C[C@@H]1c2ccc(Cl)cc2CCN1c1nc2c(c(NC3(CO)CCC3)n1)[S@+]([O-])CC2 [Compound 29] | – | 0.54 nM | 1.79 nM | – | – | – | –
Cn1ncc2c3c(cnc21)CN(c1nc2c(c(NC4(CO)CCC4)n1)[S@+]([O-])CC2)CC3 [Compound 104, (R)-4-((1-(hydroxymethyl)cyclobutyl)amino)-2-(3-methyl-3,6,8,9-tetrahydro-7H-pyrazolo[3,4-c][2,7]naphthyridin-7-yl)-6,7-dihydrothieno[3,2-d]pyrimidine 5-oxide] | – | – | 2.94 nM | – | – | – | –
COc1cc2c(cc1[N+](=O)[O-])CCN(c1nc3c(c(NC4(CO)CCC4)n1)[S@+]([O-])CC3)C2 [Compound 50, (R)-4-((1-(hydroxymethyl)cyclobutyl)amino)-2-(7-methoxy-6-nitro-3,4-dihydroisoquinolin-2(1H)-yl)-6,7-dihydrothieno[3,2-d]pyrimidine 5-oxide] | – | – | 0.695 nM | – | – | – | –
[O-][S@+]1CCc2nc(N3CCc4c(nn5cc(Cl)ccc45)C3)nc(NC3(CO)CCC3)c21 [Compound 9, (R)-2-(7-Chloro-3,4-dihydropyrazolo[1,5-a:3,4-c']dipyridin-2(1H)-yl)-4-((1-(hydroxymethyl)cyclobutyl)amino)-6,7-dihydrothieno[3,2-d]pyrimidine 5-oxide] | – | – | 0.224 nM | – | – | – | –
[O-][S@+]1CCc2nc(N3CCc4c(sc5ccc(F)cc45)C3)nc(NC3(CO)CCC3)c21 [Compound 69, (R)-2-(6-fluoro-3,4-dihydrobenzo[4,5]thieno[2,3-c]pyridin-2(1H)-yl)-4-((1-(hydroxymethyl)cyclobutyl)amino)-6,7-dihydrothieno[3,2-d]pyrimidine 5-oxide] | – | – | 0.276 nM | – | – | – | –

From patent EP4678644A1, “SUBSTITUTED DIHYDROTHIENOPYRIMIDINE COMPOUND, PREPARATION METHOD THEREFOR, AND USE THEREOF” (Shanghai Yidi Biotechnology Co., Ltd., priority 2023, dated 2024)
